Data: patent US8293769B2, “CSF-1R inhibitors, compositions, and methods of use” (Novartis AG, priority 2008, dated 2012)

Columns and labels:
PDGFRb = target: T1, PDGFRb (Homo sapiens, UniProt P09619); assay: PDGFRb kinase in vitro biochemical assay (alphascreen); details: tested at about 1 μM; read-out: PDGF RK BETA percent inhibition
T1 construct: The kinase domain of PDGFRβ was assayed in 50 mM Hepes; purchased Invitrogen P3082
Procedure: (§1) The IC50 values for the inhibition of RTKs were determined in the alphascreen format measuring the inhibition by compound of phosphate transfer to a substrate by the respective enzyme. Briefly, the respective RTK domain purchased as human recombinant protein (cKIT Upstate #14-559, PDGFRb Invitrogen #P3082) were incubated with serial dilutions of compound in the presence of substrate and ATP concentrations within 3 times the Km of the enzyme.
(§2) The kinase domain of cKIT was assayed in 50 mM Hepes, pH=7.5, 5 mM MgCl2, 10 mM MnCl2, 1 mM DTT, 0.1% BSA with 0.06 uM biotinylated peptide substrate (GGLFDDPSYVNVQNL-NH2) and 15 uM ATP (ATP KM apparent=15 uM). The kinase domain of PDGFRβ was assayed in 50 mM Hepes, pH=7.5, 20 mM MgCl2, 1 mM DTT, 0.1% BSA with 0.1 uM biotinylated peptide substrate (GGLFDDPSYVNVQNL-NH2) and 10 uM ATP (ATP KM apparent=25 uM). Reactions were incubated at room temperature for 3 to 4 hr and stopped with buffer (20 mM EDTA, 0.01% Tween-20 for both PDGFRb and cKIT). Alphascreen PY20 beads were added to the stopped cKIT reactions and PY20 Ab/Protein A Alphascreen beads were added to the PDGFRβ stopped reactions. Both reactions were incubated overnight and read on the Alphascreen reader. The concentration of compound for 50% inhibition (IC50) was calculated employing non-linear regression using XL-Fit data analysis software. As a control compound, staurosporine is run in every assay and a Z′>0.5 is required to validate results.

[1] = target: T2, cytoplasmic domain of the human CSF-1R (Homo sapiens, UniProt P07333); assay: In vitro kinase assay for CSF-1R (AlphaScreen); assay type: biochemical; details: tested at about 1 μM; read-out: CSF1RK 1 percent inhibition
T2 construct: Recombinant protein corresponding to the cytoplasmic domain of the human CSF-1R; purchased Invitrogen Corporation, Carlsbad, Calif; PV3249
T2 sequence (P07333 539-972 limits assumed): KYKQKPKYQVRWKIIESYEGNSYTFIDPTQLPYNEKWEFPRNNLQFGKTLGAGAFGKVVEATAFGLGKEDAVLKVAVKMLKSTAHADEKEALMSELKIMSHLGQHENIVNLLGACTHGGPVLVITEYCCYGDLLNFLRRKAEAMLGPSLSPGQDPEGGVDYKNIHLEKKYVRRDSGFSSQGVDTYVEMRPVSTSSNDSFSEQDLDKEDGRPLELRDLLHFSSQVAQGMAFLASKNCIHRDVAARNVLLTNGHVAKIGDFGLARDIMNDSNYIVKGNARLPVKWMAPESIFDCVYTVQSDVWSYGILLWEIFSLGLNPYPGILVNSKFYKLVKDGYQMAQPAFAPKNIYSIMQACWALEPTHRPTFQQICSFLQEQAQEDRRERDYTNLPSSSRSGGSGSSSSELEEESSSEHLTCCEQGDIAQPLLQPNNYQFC
Procedure: The kinase activity of various protein tyrosine kinases can be measured by providing ATP and a suitable peptide or protein tyrosine-containing substrate, and assaying the transfer of phosphate moiety to the tyrosine residue. Recombinant protein corresponding to the cytoplasmic domain of the human CSF-1R was purchased from Invitrogen Corporation, Carlsbad, Calif. U.S.A. (#PV3249). For each assay, test compounds were serially diluted, starting at 25 μM with 3 fold dilutions, in DMSO in 384 well plates then mixed with an appropriate kinase reaction buffer consisting of 50 mM Hepes, 5 mM MgCl2, 10 mM MnCl2, 0.1% BSA, pH 7.5, 1.0 mM dithiothreitol, 0.01% Tween 80 plus 1 μM ATP. Kinase protein and an appropriate biotinylated peptide substrate at 50 nM were added to give a final volume of 20 μL, reactions were incubated for 2 hours at room temperature and stopped by the addition of 10 μL of 45 mM EDTA, 50 mM Hepes pH 7.5. Added to the stopped reaction mix was 30 μL of PT66 Alphascreen beads (Perkin Elmer, Boston, Mass., U.S.A.). The reaction was incubated overnight and read on the Envision (Perkin Elmer). Phosphorylated peptide product was measured with the AlphaScreen system (Perkin Elmer) using acceptor beads coated with anti-phosphotyrosine antibody PT66 and donor beads coated with streptavidin that emit a fluorescent signal at the 520-620 nm emission wave length if in close proximity. The concentration of each compound for 50% inhibition (IC50) was calculated by non-linear regression using XL Fit data analysis software.
CSF-1R kinase was assayed in 50 mM Hepes pH 7.0, 5 mM MgCl2, 10 mM MnCl2, 1 mM DTT, 1 mg/mL BSA, 1.0 μM ATP, and 0.05 μM biotin-GGGGRPRAATF-NH2 (SEQ ID NO:1) peptide substrate. CSF-1R kinase was added at final concentration of 4 nM.

cKIT = target: T3, cKIT (Homo sapiens, UniProt P10721); assay: cKIT kinase in vitro biochemical assay (alphascreen); details: tested at about 1 μM; read-out: CKIT percent inhibition
T3 construct: The kinase domain of cKIT was assayed in 50 mM Hepes; purchased Upstate 14-559
T3 sequence (P10721 589-937 limits assumed): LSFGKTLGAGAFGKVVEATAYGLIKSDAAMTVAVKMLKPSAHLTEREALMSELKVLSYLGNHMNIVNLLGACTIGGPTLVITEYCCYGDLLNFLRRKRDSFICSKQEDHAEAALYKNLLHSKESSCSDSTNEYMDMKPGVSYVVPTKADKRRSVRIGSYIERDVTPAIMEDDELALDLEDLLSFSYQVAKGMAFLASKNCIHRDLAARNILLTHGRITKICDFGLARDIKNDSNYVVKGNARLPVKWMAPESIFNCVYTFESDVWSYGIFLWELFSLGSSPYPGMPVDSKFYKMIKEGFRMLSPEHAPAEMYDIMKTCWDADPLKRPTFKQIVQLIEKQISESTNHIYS
Procedure: as §1, §2

T1 sequence (P09619 600-962 limits assumed): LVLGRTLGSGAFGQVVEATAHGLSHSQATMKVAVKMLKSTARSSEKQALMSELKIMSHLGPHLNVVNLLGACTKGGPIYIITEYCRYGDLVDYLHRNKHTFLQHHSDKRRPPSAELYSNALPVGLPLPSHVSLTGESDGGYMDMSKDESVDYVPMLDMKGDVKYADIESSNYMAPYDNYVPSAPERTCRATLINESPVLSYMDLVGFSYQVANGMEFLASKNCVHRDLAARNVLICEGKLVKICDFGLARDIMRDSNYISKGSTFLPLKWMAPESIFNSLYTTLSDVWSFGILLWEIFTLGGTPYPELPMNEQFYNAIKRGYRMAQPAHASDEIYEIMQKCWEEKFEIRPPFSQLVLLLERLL

| Structure (SMILES) | inhibition at 1 µM (PDGFRb) [%] | inhibition at 1 µM [1] [%] | inhibition at 1 µM (cKIT) [%] |
| --- | --- | --- | --- |
| O[C@@H]1CCCC[C@H]1Nc1nc2ccc(Oc3cncc(C4CC4)c3)cc2s1 [Compound 65, (1R,2R)-2-(6-(5-cyclopropylpyridin-3-yloxy)benzo[d]thiazol-2-ylamino) cyclohexanol] | 8 | 100 | 73 |
| O=[N+]([O-])c1ccc(Oc2ccc3nc(NCC4CCCCC4)sc3c2)cn1 [Compound 71, N-(cyclohexylmethyl)-6-(6-nitropyridin-3-yloxy)benzo [d]thiazol-2-amine] | 1 | 25 | 11 |
| N#Cc1ccc(Oc2ccc3nc(NCC4CCCCC4)sc3c2)cn1 [Compound 86, 5-(2-(cyclohexylmethylamino)benzo [d]thiazol-6-yloxy) picolinonitrile] | 1 | 39 | 19 |
| C[C@H](Nc1nc2ccc(Oc3ccc(C#N)nc3)cc2s1)C1CCCCC1 [Compound 87, (S)-5-(2-(1-cyclohexylethylamino)benzo[d]thiazol-6-yloxy)picolinonitrile] | 0 | 32 | 16 |
| N#Cc1ccc(Oc2ccc3nc(N[C@@H]4CCCC[C@H]4O)sc3c2)cn1 [Compound 88, 5-(2-((1R,2R)-2-hydroxycyclohexylamino)benzo[d]thiazol-6-yloxy)picolinonitrile] | 0 | 32 | 15 |
| Nc1ccc(Oc2ccc3nc(NCC4CCCCC4)sc3c2)nn1 [Compound 89, 6-(6-aminopyridazin-3-yloxy)-N-(cyclohexylmethyl)benzo[d]thiazol-2-amine] | 9 | 75 | 46 |
| Nc1ccc(Oc2ccc3nc(N[C@@H]4CCCC[C@H]4O)sc3c2)nn1 [Compound 90, (1R,2R)-2-(6-(6-aminopyridazin-3-yloxy)benzo[d]thiazol-2-ylamino)cyclohexanol] | 87 | 28 | 33 |
| Cn1nccc1-c1cncc(Oc2ccc3nc(N[C@@H]4CCCC[C@H]4O)sc3c2)n1 [Compound 91, (1R,2R)-2-(6-(6-(1-methyl-1H-pyrazol-5-yl)pyrazin-2-yloxy)benzo[d]thiazol-2-ylamino) cyclohexanol] | 14 | 95 | 21 |
| O[C@@H]1CCCC[C@H]1Nc1nc2ccc(Oc3cnc(Cl)c(Br)c3)cc2s1 [Compound 99, (1R,2R)-2-(6-(5-bromo-6-chloropyridin-3-yloxy)benzo[d]thiazol-2-ylamino)cyclohexanol] | 21 | 83 | 27 |

Further lines, results first:

| inhibition at 1 µM (PDGFRb) [%] | inhibition at 1 µM [1] [%] | inhibition at 1 µM (cKIT) [%] | Structure (SMILES) |
| --- | --- | --- | --- |
| 19 | 100 | 84 | O[C@@H]1CCCC[C@H]1Nc1nc2ccc(Oc3cncc(-c4cn[nH]c4)c3)cc2s1 [Compound 55, (1R,2R)-2-(6-(5-(1H-pyrazol-4-yl)pyridin-3-yloxy)benzo [d]thiazo-2-ylamino)cyclohexanol] |
| 7 | 100 | 86 | CCCn1cc(-c2cncc(Oc3ccc4nc(N[C@@H]5CCCC[C@H]5O)sc4c3)c2)cn1 [Compound 58, (1R,2R)-2-(6-(5-(1-propyl-1H-pyrazol-4-yl)pyridin-3-yloxy)benzo[d]thiazol-2-ylamino)cyclohexanol] |
| 16 | 100 | 78 | O[C@@H]1CCCC[C@H]1Nc1nc2ccc(Oc3cncc(-c4cnn(CCN5CCOCC5)c4)c3)cc2s1 [Compound 59, (1R,2R)-2-(6-(5-(1-(2-morpholinoethyl)-1H-pyrazol-4-yl)pyridin-3-yloxy)benzo[d]thiazol-2-ylamino)cyclohexanol] |
| 8 | 100 | 84 | O[C@@H]1CCCC[C@H]1Nc1nc2ccc(Oc3cncc(-c4cnc5[nH]ccc5c4)c3)cc2s1 [Compound 61, (1R,2R)-2-(6-(5-(1H-pyrrolo[2,3-b]pyridin-5-yl)pyridin-3-yloxy)benzo[d]thiazol-2-ylamino) cyclohexanol] |
| 26 | 100 | 77 | CN1CCN(c2ccc(-c3cncc(Oc4ccc5nc(N[C@@H]6CCCC[C@H]6O)sc5c4)c3)cn2)CC1 [Compound 62, (1R,2R)-2-(6-(6′-(4-methylpiperazin-1-yl)-3,3′-bipyridin-5-yloxy)benzo[d]thiazol-2-ylamino) cyclohexanol] |
| 36 | 100 | 94 | O[C@@H]1CCCC[C@H]1Nc1nc2ccc(Oc3cncc(-c4ccccn4)c3)cc2s1 [Compound 67] |
| 31 | 100 | 97 | O[C@@H]1CCCC[C@H]1Nc1nc2ccc(Oc3cncc(-c4cscn4)c3)cc2s1 [Compound 69, (1R,2R)-2-(6-(5-(thiazol-4-yl)pyridin-3-yloxy)benzo[d]thiazol-2-ylamino) cyclohexanol] |
| 10 | 100 | 76 | O[C@@H]1CCCC[C@H]1Nc1nc2ccc(Oc3cncc(-c4ccc(N5CCOCC5)nc4)c3)cc2s1 [Compound 72, (1R,2R)-2-(6-(6′-morpholino-3,3′-bipyridin-5-yloxy)benzo[d]thiazol-2-ylamino)cyclohexanol] |
| 6 | 100 | 83 | O[C@@H]1CCCC[C@H]1Nc1nc2ccc(Oc3cncc(-c4ccnc(N5CCOCC5)c4F)c3)cc2s1 [Compound 77] |
| 9 | 100 | 88 | O[C@@H]1CCCC[C@H]1Nc1nc2ccc(Oc3cncc(-c4ccn[nH]4)c3)cc2s1 [Compound 78, (1R,2R)-2-(6-(5-(1H-pyrazol-5-yl)pyridin-3-yloxy)benzo [d]thiazol-2-ylamino)cyclohexanol] |
| 0 | 100 | 82 | O[C@@H]1CCCC[C@H]1Nc1nc2ccc(Oc3cncc(-c4cnn(CC(F)F)c4)c3)cc2s1 [Compound 82, (1R,2R)-2-(6-(5-(1-(2,2-difluoroethyl)-1H-pyrazol-4-yl)pyridin-3-yloxy)benzo[d]thiazol-2-ylamino)cyclohexanol] |
| 98 | 100 | 86 | O[C@@H]1CCCC[C@H]1Nc1nc2ccc(Oc3cncc(-c4ncco4)c3)cc2s1 [Compound 83, (1R,2R)-2-(6-(5-(oxazol-2-yl)pyridin-3-yloxy)benzo[d]thiazol-2-ylamino) cyclohexanol] |
